The values that follow come from patent US9943519B2, “Pharmaceutical compounds” (F.HOFFMANN-LA ROCHE AG, priority 2006, dated 2018).

Common to all, as to type: biochemical
Conditions in all cases: ratio of IC50 values, SPA, purified human PI3K isoforms

Assay [1] has as its target human PI3K isoform gamma (p110 gamma) (Homo sapiens, UniProt P48736). The assay can be described thus: p110 isoform selectivity scintillation proximity assay (gamma). As to the method:
(§1) Binding of compounds of the invention from above Tables 1a and 1b to purified preparations of p110 isoforms alpha, beta, delta, and gamma was measured by a Scintillation Proximity Assay (SPA) to determine binding activity (IC50 μMol) and selectivity of binding of beta, delta, and gamma isoforms relative to alpha (Example 8). These values are expressed in Table 2.
(§2) The ability of representative compounds from Tables 1a and 1b to inhibit the lipid kinase activity of purified preparations of human PI3K isoforms alpha, beta, delta, and gamma was determined by a radiometric scintillation proximity assay (SPA, GE Healthcare, Amersham Biosciences). Concentration dependent inhibition at 50% (IC50 μMol) was determined for all four isoforms […] and fold potency over beta, delta, and gamma relative to alpha was calculated for a selection of compounds in Table 2. Each compound has a p110 alpha IC50<1 μMol.

Assay [2] has as its target human PI3K isoform beta (p110 beta) (Homo sapiens, UniProt P42338). The assay can be described thus: p110 isoform selectivity scintillation proximity assay (beta). As to the method: as §1, §2
In general terms: Scintillation proximity formats need no separation of bound from free tracer.

For assay [3], the target named is human PI3K isoform delta (p110 delta) (Homo sapiens, UniProt O00329). Put plainly: p110 isoform selectivity scintillation proximity assay (delta). As to the method: as §1, §2
Sequence of human PI3K isoform delta (p110 delta) (O00329 whole entry, canonical isoform): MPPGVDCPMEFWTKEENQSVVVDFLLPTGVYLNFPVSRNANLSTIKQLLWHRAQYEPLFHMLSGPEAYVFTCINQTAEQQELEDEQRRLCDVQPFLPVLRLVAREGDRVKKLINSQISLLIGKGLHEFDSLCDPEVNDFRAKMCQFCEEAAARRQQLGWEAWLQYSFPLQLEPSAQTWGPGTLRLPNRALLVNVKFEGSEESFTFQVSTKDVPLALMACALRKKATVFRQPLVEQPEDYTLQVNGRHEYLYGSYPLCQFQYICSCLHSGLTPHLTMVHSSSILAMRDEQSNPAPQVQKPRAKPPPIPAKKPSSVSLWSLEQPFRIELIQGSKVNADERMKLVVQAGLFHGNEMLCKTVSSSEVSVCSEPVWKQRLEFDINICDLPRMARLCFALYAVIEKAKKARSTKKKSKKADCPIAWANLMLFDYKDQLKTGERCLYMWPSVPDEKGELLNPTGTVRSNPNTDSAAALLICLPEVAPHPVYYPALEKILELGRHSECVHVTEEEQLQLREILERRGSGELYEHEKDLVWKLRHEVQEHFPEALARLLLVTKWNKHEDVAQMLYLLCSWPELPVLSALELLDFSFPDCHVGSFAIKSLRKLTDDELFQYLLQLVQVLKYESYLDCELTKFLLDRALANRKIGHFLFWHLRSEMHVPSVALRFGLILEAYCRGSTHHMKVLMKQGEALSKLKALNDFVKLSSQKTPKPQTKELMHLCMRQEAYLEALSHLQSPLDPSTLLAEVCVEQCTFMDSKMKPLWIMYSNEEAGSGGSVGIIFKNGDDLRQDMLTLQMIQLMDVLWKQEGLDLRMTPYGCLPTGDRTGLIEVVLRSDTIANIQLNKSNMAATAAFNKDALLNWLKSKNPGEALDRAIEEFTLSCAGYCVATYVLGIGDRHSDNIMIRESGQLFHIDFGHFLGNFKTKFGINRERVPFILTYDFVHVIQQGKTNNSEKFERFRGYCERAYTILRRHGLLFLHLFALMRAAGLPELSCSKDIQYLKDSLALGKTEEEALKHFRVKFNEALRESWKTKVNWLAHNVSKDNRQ
Sequence of human PI3K isoform delta (p110 delta) (P27986 whole entry partner, canonical isoform): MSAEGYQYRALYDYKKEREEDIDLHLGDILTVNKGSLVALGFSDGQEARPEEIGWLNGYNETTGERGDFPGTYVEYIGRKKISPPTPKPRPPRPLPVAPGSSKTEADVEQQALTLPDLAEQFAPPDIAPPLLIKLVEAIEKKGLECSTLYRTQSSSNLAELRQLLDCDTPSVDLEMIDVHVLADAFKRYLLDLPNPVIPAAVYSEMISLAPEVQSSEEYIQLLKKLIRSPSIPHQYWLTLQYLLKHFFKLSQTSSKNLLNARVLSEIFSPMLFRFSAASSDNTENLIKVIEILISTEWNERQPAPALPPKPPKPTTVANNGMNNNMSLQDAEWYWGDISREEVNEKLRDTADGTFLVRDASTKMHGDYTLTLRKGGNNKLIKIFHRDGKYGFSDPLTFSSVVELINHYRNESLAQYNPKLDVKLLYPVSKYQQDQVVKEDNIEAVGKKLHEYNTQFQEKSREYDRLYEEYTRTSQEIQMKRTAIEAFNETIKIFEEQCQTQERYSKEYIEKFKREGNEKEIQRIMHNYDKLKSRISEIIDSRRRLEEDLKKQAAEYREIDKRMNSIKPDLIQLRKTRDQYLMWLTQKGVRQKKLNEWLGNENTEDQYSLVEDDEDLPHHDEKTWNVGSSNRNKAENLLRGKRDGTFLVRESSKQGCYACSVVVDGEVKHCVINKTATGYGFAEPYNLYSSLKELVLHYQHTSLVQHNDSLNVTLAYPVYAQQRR

Sequence of human PI3K isoform gamma (p110 gamma) (P48736 whole entry, canonical isoform): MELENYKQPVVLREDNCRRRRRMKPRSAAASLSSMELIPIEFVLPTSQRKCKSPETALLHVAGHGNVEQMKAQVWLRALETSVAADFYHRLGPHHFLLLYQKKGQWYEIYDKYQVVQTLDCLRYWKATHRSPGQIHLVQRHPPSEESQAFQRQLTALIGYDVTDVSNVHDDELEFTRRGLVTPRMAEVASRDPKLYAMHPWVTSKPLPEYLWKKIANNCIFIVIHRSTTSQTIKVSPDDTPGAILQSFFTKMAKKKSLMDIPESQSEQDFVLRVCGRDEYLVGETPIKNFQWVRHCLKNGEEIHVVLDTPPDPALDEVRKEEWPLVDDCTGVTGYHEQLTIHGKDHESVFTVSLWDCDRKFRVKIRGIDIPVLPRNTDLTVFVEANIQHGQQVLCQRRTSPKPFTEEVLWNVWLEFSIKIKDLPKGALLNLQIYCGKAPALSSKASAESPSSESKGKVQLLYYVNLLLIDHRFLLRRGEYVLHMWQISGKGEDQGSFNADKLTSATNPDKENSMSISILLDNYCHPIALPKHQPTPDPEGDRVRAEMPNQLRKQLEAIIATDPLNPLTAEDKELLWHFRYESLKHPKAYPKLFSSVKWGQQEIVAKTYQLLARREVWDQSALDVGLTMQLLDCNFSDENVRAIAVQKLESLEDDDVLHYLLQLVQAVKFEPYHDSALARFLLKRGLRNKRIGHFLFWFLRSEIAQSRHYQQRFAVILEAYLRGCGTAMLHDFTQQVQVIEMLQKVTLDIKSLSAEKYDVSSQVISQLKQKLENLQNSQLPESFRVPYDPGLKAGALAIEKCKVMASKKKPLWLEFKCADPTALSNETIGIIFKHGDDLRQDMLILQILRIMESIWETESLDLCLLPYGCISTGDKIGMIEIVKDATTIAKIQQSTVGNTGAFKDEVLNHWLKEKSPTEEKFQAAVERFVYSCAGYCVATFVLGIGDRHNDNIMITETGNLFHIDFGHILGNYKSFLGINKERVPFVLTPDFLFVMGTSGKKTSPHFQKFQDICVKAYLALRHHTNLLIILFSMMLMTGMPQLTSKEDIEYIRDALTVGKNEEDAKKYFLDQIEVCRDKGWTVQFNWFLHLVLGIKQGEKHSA
Sequence of human PI3K isoform beta (p110 beta) (P42338 whole entry, canonical isoform): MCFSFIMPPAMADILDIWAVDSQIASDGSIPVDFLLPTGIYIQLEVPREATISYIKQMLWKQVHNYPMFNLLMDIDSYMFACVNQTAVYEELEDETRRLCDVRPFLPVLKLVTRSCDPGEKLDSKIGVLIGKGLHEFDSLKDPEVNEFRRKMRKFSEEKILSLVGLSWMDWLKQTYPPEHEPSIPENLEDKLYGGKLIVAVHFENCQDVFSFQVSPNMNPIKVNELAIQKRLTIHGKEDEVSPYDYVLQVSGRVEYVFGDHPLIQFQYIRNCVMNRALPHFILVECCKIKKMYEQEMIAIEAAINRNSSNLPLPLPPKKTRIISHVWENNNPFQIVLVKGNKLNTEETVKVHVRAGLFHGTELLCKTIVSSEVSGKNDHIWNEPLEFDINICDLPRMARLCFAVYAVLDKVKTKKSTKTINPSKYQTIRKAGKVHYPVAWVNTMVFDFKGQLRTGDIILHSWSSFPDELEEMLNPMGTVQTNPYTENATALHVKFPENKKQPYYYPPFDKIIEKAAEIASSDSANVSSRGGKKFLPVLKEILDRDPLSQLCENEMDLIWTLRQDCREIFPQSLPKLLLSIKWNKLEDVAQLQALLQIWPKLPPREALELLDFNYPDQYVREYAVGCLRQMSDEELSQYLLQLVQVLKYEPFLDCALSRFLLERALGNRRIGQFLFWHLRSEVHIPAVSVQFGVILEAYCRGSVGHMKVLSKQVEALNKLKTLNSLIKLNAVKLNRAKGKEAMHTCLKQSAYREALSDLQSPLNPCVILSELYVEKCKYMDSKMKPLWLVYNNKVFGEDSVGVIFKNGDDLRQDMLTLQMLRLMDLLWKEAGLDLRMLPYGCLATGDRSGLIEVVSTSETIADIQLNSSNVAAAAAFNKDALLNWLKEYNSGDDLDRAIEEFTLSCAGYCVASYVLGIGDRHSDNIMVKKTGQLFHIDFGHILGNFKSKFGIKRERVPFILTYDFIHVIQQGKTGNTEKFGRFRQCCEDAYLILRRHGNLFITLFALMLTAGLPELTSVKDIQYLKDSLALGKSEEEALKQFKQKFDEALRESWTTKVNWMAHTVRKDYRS
Sequence of human PI3K isoform beta (p110 beta) (P27986 whole entry partner, canonical isoform): as the sequence (P27986 whole entry partner, canonical isoform) above

As to `CS(=O)(=O)N1CCN(Cc2cc3nc(-c4cccc5[nH]ncc45)nc(N4CCOCC4)c3o2)CC1` [Compound 2, 2-(1H-indazol-4-yl)-6-((4-methylsulfonylpiperazin-1-yl)methyl)-4-morpholinofuro[3,2-d]pyrimidine], the “alpha/gamma (fold potency over gamma relative to alpha)” value in assay [1] is on record as more than 10 fold. Also, in assay [2], the “alpha/beta (fold potency over beta relative to alpha)” value is on record as more than 10 fold. Moreover, the “alpha/delta (fold potency over delta relative to alpha)” value in assay [3] is listed as less than 10 fold.
In the case of `C[C@H]1CN(Cc2cc3nc(-c4cccc5[nH]ncc45)nc(N4CCOCC4)c3s2)CCN1S(C)(=O)=O` [Compound 4, 2-(1H-indazol-4-yl)-6-(((3S,5R)-3-methyl-4-methylsulfonylpiperazin-1-yl)methyl)-4-morpholinothieno[3,2-d]pyrimidine], the “alpha/gamma (fold potency over gamma relative to alpha)” value in assay [1] is on record as more than 10 fold. For the same compound, the “alpha/beta (fold potency over beta relative to alpha)” value in assay [2] is recorded as more than 10 fold. Besides, the “alpha/delta (fold potency over delta relative to alpha)” value in assay [3] was less than 10 fold.
`C[C@@H]1CN(S(C)(=O)=O)C[C@H](C)N1Cc1cc2nc(-c3cccc4[nH]ncc34)nc(N3CCOCC3)c2s1` [Compound 7, 6-(((2R,6S)-4-methylsulfonyl-2,6-dimethylpiperazin-1-yl)methyl)-2-(1H-indazol-4-yl)-4-morpholinothieno[3,2-d]pyrimidine]: in assay [1], the “alpha/gamma (fold potency over gamma relative to alpha)” value is more than 10 fold. The “alpha/beta (fold potency over beta relative to alpha)” value in assay [2] is recorded as more than 10 fold. In addition, the “alpha/delta (fold potency over delta relative to alpha)” value in assay [3] is less than 10 fold.
Turning to `Cc1nc2ccccc2n1-c1nc(N2CCOCC2)c2cc(CN3CCN(S(C)(=O)=O)CC3)sc2n1` [Compound 16, 2-(2-methyl-1H-benzo[d]imidazol-1-yl)-6-((4-methylsulfonylpiperazin-1-yl)methyl)-4-morpholinothieno[2,3-d]pyrimidine], the “alpha/gamma (fold potency over gamma relative to alpha)” value in assay [1] is more than 10 fold. In assay [2], the “alpha/beta (fold potency over beta relative to alpha)” value is more than 10 fold. In addition, in assay [3], the “alpha/delta (fold potency over delta relative to alpha)” value is less than 10 fold.
Turning to `Cc1c(CN2CCC(S(C)(=O)=O)CC2)sc2c(N3CCOCC3)nc(-c3cccc4[nH]ncc34)nc12` [Compound 23, 2-(1H-indazol-4-yl)-7-methyl-6-((4-(methylsulfonyl)piperidin-1-yl)methyl)-4-morpholinothieno[3,2-d]pyrimidine], the “alpha/gamma (fold potency over gamma relative to alpha)” value in assay [1] is on record as more than 10 fold. Also, the “alpha/beta (fold potency over beta relative to alpha)” value in assay [2] is recorded as more than 10 fold. In addition, the “alpha/delta (fold potency over delta relative to alpha)” value in assay [3] is less than 10 fold.
Take `CN1CCN(S(=O)(=O)C2CCN(Cc3cc4nc(-c5cccc6[nH]ncc56)nc(N5CCOCC5)c4s3)CC2)CC1` [Compound 24, 2-(1H-indazol-4-yl)-6-((4-N-4-methylpiperazinosulfonylpiperidin-1-yl)methyl)-4-morpholinothieno[3,2-d]pyrimidine]: the “alpha/gamma (fold potency over gamma relative to alpha)” value in assay [1] was more than 10 fold. Further, in assay [2], the “alpha/beta (fold potency over beta relative to alpha)” value is listed as more than 10 fold. Besides, the “alpha/delta (fold potency over delta relative to alpha)” value in assay [3] is less than 10 fold.
As to `CN(C)S(=O)(=O)C1CCN(Cc2cc3nc(-c4cccc5[nH]ncc45)nc(N4CCOCC4)c3s2)CC1` [Compound 27, 2-(1H-indazol-4-yl)-6-((4-N,N-dimethylaminosulfonylpiperidin-1-yl)methyl)-4-morpholinothieno[3,2-d]pyrimidine], the “alpha/gamma (fold potency over gamma relative to alpha)” value in assay [1] is more than 10 fold. Moreover, in assay [2], the “alpha/beta (fold potency over beta relative to alpha)” value was more than 10 fold. The “alpha/delta (fold potency over delta relative to alpha)” value in assay [3] was less than 10 fold.
In the case of `O=S(=O)(N1CCOCC1)N1CCN(Cc2cc3nc(-c4cccc5[nH]ncc45)nc(N4CCOCC4)c3s2)CC1` [Compound 28, 2-(1H-indazol-4-yl)-6-((4-N-morpholinosulfonylpiperazin-1-yl)methyl)-4-morpholinothieno[3,2-d]pyrimidine], in assay [1], the “alpha/gamma (fold potency over gamma relative to alpha)” value is given as more than 10 fold. The “alpha/beta (fold potency over beta relative to alpha)” value in assay [2] is reported as more than 10 fold. In assay [3], the “alpha/delta (fold potency over delta relative to alpha)” value is given as less than 10 fold.
For `Cc1c(CN2CCN(S(C)(=O)=O)CC2)sc2c(N3CCOCC3)nc(-c3cccc4[nH]ncc34)nc12` [Compound 29, 2-(1H-indazol-4-yl)-7-methyl-6-((4-(methylsulfonyl)piperazin-1-yl)methyl)-4-morpholinothieno[3,2-d]pyrimidine], the “alpha/gamma (fold potency over gamma relative to alpha)” value in assay [1] is more than 10 fold. The “alpha/beta (fold potency over beta relative to alpha)” value in assay [2] is given as more than 10 fold. Also, the “alpha/delta (fold potency over delta relative to alpha)” value in assay [3] is recorded as less than 10 fold.
Turning to `COCCN(Cc1cc2nc(-c3cccc4[nH]ncc34)nc(N3CCOCC3)c2s1)C1CCN(S(C)(=O)=O)CC1` [Compound 34, N-((2-(1H-indazol-4-yl)-4-morpholinothieno[3,2-d]pyrimidin-6-yl)methyl)-N-(2-methoxyethyl)-1-methylsulfonylpiperidin-4-amine], in assay [1], the “alpha/gamma (fold potency over gamma relative to alpha)” value is reported as more than 10 fold. Also, in assay [2], the “alpha/beta (fold potency over beta relative to alpha)” value is more than 10 fold. In assay [3], the “alpha/delta (fold potency over delta relative to alpha)” value is on record as less than 10 fold.
As for `CC(=O)N1CCN(Cc2cc3nc(-c4cccc5[nH]ncc45)nc(N4CCOCC4)c3s2)CC1` [Compound 54, 1-(4-((2-(1H-indazol-4-yl)-4-morpholinothieno[3,2-d]pyrimidin-6-yl)methyl)piperazin-1-yl)ethanone], the “alpha/gamma (fold potency over gamma relative to alpha)” value in assay [1] is reported as more than 10 fold. Besides, the “alpha/beta (fold potency over beta relative to alpha)” value in assay [2] is recorded as less than 10 fold. Moreover, in assay [3], the “alpha/delta (fold potency over delta relative to alpha)” value is less than 10 fold.
As for `CS(=O)(=O)N1CCN(Cc2cc3c(N4CCOCC4)nc(-c4cccc5[nH]ncc45)nc3s2)CC1` [Compound 57, 2-(1H-indazol-4-yl)-6-((4-methylsulfonylpiperazin-1-yl)methyl)-4-morpholinothieno[2,3-d]pyrimidine], in assay [1], the “alpha/gamma (fold potency over gamma relative to alpha)” value was more than 10 fold. The “alpha/beta (fold potency over beta relative to alpha)” value in assay [2] is on record as more than 10 fold. Further, in assay [3], the “alpha/delta (fold potency over delta relative to alpha)” value is recorded as less than 10 fold.
For `CN(C1CCN(Cc2cc3nc(-c4cccc5[nH]ncc45)nc(N4CCOCC4)c3s2)C1)S(C)(=O)=O` (stereo not drawn) [Compound 58, 1-((2-(1H-indazol-4-yl)-4-morpholinothieno[3,2-d]pyrimidin-6-yl)methyl)-N-methyl-N-methylsulfonylpyrrolidin-3-amine], the “alpha/gamma (fold potency over gamma relative to alpha)” value in assay [1] is on record as more than 10 fold. For the same compound, the “alpha/beta (fold potency over beta relative to alpha)” value in assay [2] is listed as more than 10 fold. Also, the “alpha/delta (fold potency over delta relative to alpha)” value in assay [3] is listed as less than 10 fold.
Turning to `CN(Cc1cc2nc(-c3cccc4[nH]ncc34)nc(N3CCOCC3)c2s1)CC1CCCN1S(C)(=O)=O` (stereo not drawn) [Compound 59, N-((2-(1H-indazol-4-yl)-4-morpholinothieno[3,2-d]pyrimidin-6-yl)methyl)-N-methyl(1-methylsulfonylpyrrolidin-2-yl)methanamine], in assay [1], the “alpha/gamma (fold potency over gamma relative to alpha)” value is reported as more than 10 fold. In addition, the “alpha/beta (fold potency over beta relative to alpha)” value in assay [2] was more than 10 fold. In addition, in assay [3], the “alpha/delta (fold potency over delta relative to alpha)” value is less than 10 fold.
Regarding `CN(Cc1cc2nc(-c3cccc4[nH]ncc34)nc(N3CCOCC3)c2s1)C1CCN(S(C)(=O)=O)C1` (stereo not drawn) [Compound 60, N-((2-(1H-indazol-4-yl)-4-morpholinothieno[3,2-d]pyrimidin-6-yl)methyl)-N-methyl-(1-methylsulfonylpyrrolidin)-3-amine], the “alpha/gamma (fold potency over gamma relative to alpha)” value in assay [1] was more than 10 fold. In assay [2], the “alpha/beta (fold potency over beta relative to alpha)” value is more than 10 fold. Moreover, in assay [3], the “alpha/delta (fold potency over delta relative to alpha)” value is given as less than 10 fold.
With `c1cc(-c2nc(N3CCOCC3)c3sc(CN4CCC(Cn5cccn5)CC4)cc3n2)c2cn[nH]c2c1` [Compound 62, 6-((4-((1H-pyrazol-1-yl)methyl)piperidin-1-yl)methyl)-2-(1H-indazol-4-yl)-4-morpholinothieno[3,2-d]pyrimidine], the “alpha/gamma (fold potency over gamma relative to alpha)” value in assay [1] was more than 10 fold. Besides, the “alpha/beta (fold potency over beta relative to alpha)” value in assay [2] is on record as more than 10 fold. In assay [3], the “alpha/delta (fold potency over delta relative to alpha)” value is listed as less than 10 fold.
As to `OC1CCCN(Cc2cc3nc(-c4cccc5[nH]ncc45)nc(N4CCOCC4)c3s2)C1` (stereo not drawn) [Compound 65, 1-((2-(1H-indazol-4-yl)-4-morpholinothieno[3,2-d]pyrimidin-6-yl)methyl)piperidin-3-ol], the “alpha/gamma (fold potency over gamma relative to alpha)” value in assay [1] is recorded as more than 10 fold. Moreover, the “alpha/beta (fold potency over beta relative to alpha)” value in assay [2] is less than 10 fold. For the same compound, in assay [3], the “alpha/delta (fold potency over delta relative to alpha)” value is reported as less than 10 fold.
On to `C[C@H](O)C(=O)N1CCN(Cc2cc3nc(-c4cccc5[nH]ncc45)nc(N4CCOCC4)c3s2)CC1` [Compound 66, (S)-1-(4-((2-(1H-indazol-4-yl)-4-morpholinothieno[3,2-d]pyrimidin-6-yl)methyl)piperazin-1-yl)-2-hydroxypropan-1-one], for which the “alpha/gamma (fold potency over gamma relative to alpha)” value in assay [1] is recorded as more than 10 fold. For the same compound, the “alpha/beta (fold potency over beta relative to alpha)” value in assay [2] is reported as less than 10 fold. The “alpha/delta (fold potency over delta relative to alpha)” value in assay [3] is listed as less than 10 fold.
On to `CS(=O)(=O)N1CCN(Cc2cc3nc(-c4cnc5ccccc5c4)nc(N4CCOCC4)c3s2)CC1` [Compound 89, 3-[6-(4-Methanesulfonyl-piperazin-1-ylmethyl)-4-morpholin-yl-thieno[3,2-d]pyrimidin-2-yl]-quinoline], for which the “alpha/gamma (fold potency over gamma relative to alpha)” value in assay [1] is on record as more than 10 fold. The “alpha/beta (fold potency over beta relative to alpha)” value in assay [2] was more than 10 fold. Also, the “alpha/delta (fold potency over delta relative to alpha)” value in assay [3] is recorded as more than 10 fold.
